31 compounds from patent publication US20150183781A1, “5-(1H-Pyrazol-4-yl)-1H-Pyrrolo[2,3-b]Pyridine Derivatives as Kinase Inhibitors” (AURIGENE DISCOVERY TECHNOLOGIES LIMITED, priority 2012, published 2015) can be followed below.

The target of this experiment is T1, recombinant human ALK enzyme (Homo sapiens, UniProt Q9UM73).
T1 construct: purchased Carna Biosciences 08-518
As to the kind of experiment: ALK WT cell free assay (TR-FRET). To be noted: 1 μM ATP; for pIC50: 10 point dose response, read-out: IC50 value (in range); for inhibition at 0.1 µM: compound 100 nM, read-out: Percentage Inhibition 100 nM; for inhibition at 0.1 µM / inhibition at 1 µM: 30 min pre-incubation; for inhibition at 1 µM: compound 1 μM, read-out: Percentage Inhibition 1 μM. The class given is biochemical. As to the method:
The ALK WT cell free assay was set up to evaluate the effects of these compounds as inhibitors of ALK enzyme. The enzymatic assay was standardized using recombinant human ALK enzyme (Cat#08-518) from Carna Biosciences using Ultra Light Poly GT (Cat# TRF […]) from Perkin Elmer as a substrate. TR-FRET (Time resolved fluorescence resonance energy transfer) detection technology was used for the read out. […] The assay reaction time with the substrate was 30 minutes after which the antibody detection mix is added. The TR-FRET signal (Excitation at 340 nm, Emission at 615 nm and 665 nm) was read with 50 μs delay time on Victor^3 V fluorimeter. The data is calculated using the ratio of reading at 665 nm to 615 nm. […] Compounds were screened at 100 nM and 1 μM concentrations with pre-incubation of the enzymes with compound for 30 minutes.

pIC50: −log10 of the molar value. Counter-ions that a name gives are not always drawn.

T1 sequence (Q9UM73 1058-1620 limits assumed): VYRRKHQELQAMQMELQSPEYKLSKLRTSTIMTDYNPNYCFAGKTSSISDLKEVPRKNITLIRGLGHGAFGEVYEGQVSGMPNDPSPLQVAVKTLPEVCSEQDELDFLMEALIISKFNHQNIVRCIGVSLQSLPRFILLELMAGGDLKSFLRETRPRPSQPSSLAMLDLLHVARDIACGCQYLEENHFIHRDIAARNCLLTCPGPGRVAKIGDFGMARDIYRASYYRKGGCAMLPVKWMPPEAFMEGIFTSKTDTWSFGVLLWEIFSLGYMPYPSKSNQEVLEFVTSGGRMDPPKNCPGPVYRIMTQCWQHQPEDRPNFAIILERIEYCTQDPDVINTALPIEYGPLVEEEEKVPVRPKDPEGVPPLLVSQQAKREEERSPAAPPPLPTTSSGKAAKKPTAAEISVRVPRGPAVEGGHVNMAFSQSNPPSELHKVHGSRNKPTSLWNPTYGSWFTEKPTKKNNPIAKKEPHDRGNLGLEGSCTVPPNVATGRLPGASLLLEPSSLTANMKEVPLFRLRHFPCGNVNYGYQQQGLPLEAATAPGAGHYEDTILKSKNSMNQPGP

For `Fc1cc(F)cc(Cn2cc(-c3c[nH]c4ncc(-c5cnn(C6CCNCC6)c5)cc34)cn2)c1` [Example-22, 3-(1-(3,5-difluorobenzyl)-1H-pyrazol-4-yl)-5-(1-(piperidin-4-yl)-1H-pyrazol-4yl)-1H-pyrrolo[2,3-b]pyridinehydrochloride], the pIC50 was greater than 7.30, the inhibition at 0.1 µM is 97% and the inhibition at 1 µM amounted to 100%.

Take `Cc1nn(Cc2cc(Cl)ccc2F)cc1-c1c[nH]c2ncc(-c3cnn(C)c3)cc12` [Example-7]: the pIC50 was less than 6.70, the inhibition at 0.1 µM was 45% and the inhibition at 1 µM was 93%.

With `Cc1nn(Cc2cccc(O)c2)c(C)c1-c1c[nH]c2ncc(-c3cnn(C4CCNCC4)c3)cc12` [Example-25], the pIC50 is 6.70 to 7.30, the inhibition at 0.1 µM is 70% and the inhibition at 1 µM was determined as 95%.

With `Cc1nn(Cc2cccc(F)c2)cc1-c1c[nH]c2ncc(-c3cnn(C4CCNCC4)c3)cc12` [Example-26], the pIC50 is greater than 7.30, the inhibition at 0.1 µM came to 79% and the inhibition at 1 µM worked out at 96%.

For the compound `OCCCn1cc(-c2cnc3[nH]cc(-c4cnn(Cc5cccc(F)c5)c4)c3c2)cn1` [Example-30], the pIC50 is greater than 7.30, the inhibition at 0.1 µM came to 88% and the inhibition at 1 µM worked out at 99%.

For `C[C@H](O)CN1CCC(n2cc(-c3cnc4[nH]cc(-c5cnn(Cc6cccc(F)c6)c5)c4c3)cn2)CC1` [Example-32, (S)-1-(4-(4-(3-(1-(3-fluorobenzyl)-1H-pyrazol-4-yl)-1H-pyrrolo[2,3-b]pyridin-5-yl)-1H-pyrazol-1-yl)piperidin-1-yl)propan-2-ol], the pIC50 was greater than 7.30, the inhibition at 0.1 µM was determined as 90% and the inhibition at 1 µM amounted to 99%.

`Cn1cc(-c2cnc3[nH]cc(-c4cnn(Cc5cc(F)ccc5F)c4)c3c2)cn1` [Example-10]: the negative-log IC50 (pIC50) is greater than 7.30 and the inhibition at 1 µM is 98%.

Consider `Cc1nn(Cc2cc(F)cc(F)c2)c(C)c1-c1c[nH]c2ncc(-c3cnn(C)c3)cc12` [Example-19], for which the pIC50 was greater than 7.30, the inhibition at 0.1 µM turned out to be 80% and the inhibition at 1 µM was determined as 96%.

Consider `Cn1cc(-c2cnc3[nH]cc(-c4cn(Cc5cccc(F)c5)nc4C(C)(C)C)c3c2)cn1` [Example-15], for which the inhibition at 0.1 µM was found to be 6% and the inhibition at 1 µM was 6%.

As to `Cn1cc(-c2cnc3[nH]cc(-c4cnn(Cc5cccc(C(F)(F)F)c5)c4)c3c2)cn1` [Example-11], the negative logarithm of the IC50 (pIC50) is less than 6.70 and the inhibition at 1 µM was 77%.

`Cc1c(-c2c[nH]c3ncc(-c4cnn(C5CCNCC5)c4)cc23)cnn1Cc1cccc(F)c1` [Example-27]: the pIC50 was greater than 7.30, the inhibition at 0.1 µM turned out to be 79% and the inhibition at 1 µM worked out at 98%.

On to `Cn1cc(-c2cnc3[nH]cc(-c4cnn(Cc5cccc(O)c5)c4)c3c2)cn1` [Example-20], for which the pIC50 is greater than 7.30, the inhibition at 0.1 µM worked out at 81% and the inhibition at 1 µM amounted to 99%.

In the case of `Cn1cc(-c2cnc3[nH]cc(-c4cn(Cc5cccc(F)c5)nc4C(F)(F)F)c3c2)cn1` [Example-17], the pIC50 was 6.70 to 7.30, the inhibition at 0.1 µM came out at 62% and the inhibition at 1 µM came out at 89%.

For `Cc1nn(Cc2cccc(F)c2)c(C)c1-c1c[nH]c2ncc(-c3cnn(CCO)c3)cc12` [Example-29], the pIC50 is greater than 7.30, the inhibition at 0.1 µM came to 73% and the inhibition at 1 µM is 100%.

Take `Fc1cccc(Cn2cc(-c3c[nH]c4ncc(-c5cnn(C6CCNCC6)c5)cc34)cn2)c1` [Example-23]: the pIC50 is greater than 7.30, the inhibition at 0.1 µM was found to be 80% and the inhibition at 1 µM worked out at 94%.

As for `Cn1cc(-c2cnc3[nH]cc(-c4cnn(Cc5ccccc5)c4)c3c2)cn1` [Example-8], the pIC50 is 6.70 to 7.30 and the inhibition at 1 µM came to 98%.

For `Cc1nn(Cc2cccc(F)c2)c(C)c1-c1c[nH]c2ncc(-c3cnn(C)c3)cc12` [Example-18], the pIC50 is greater than 7.30, the inhibition at 0.1 µM came out at 79% and the inhibition at 1 µM came to 96%.

For the compound `Cn1cc(-c2cnc3[nH]cc(-c4cnn(Cc5cccc(Cl)c5)c4)c3c2)cn1` [Example-13], the pIC50 is greater than 7.30 and the inhibition at 1 µM worked out at 96%.

Take `Cn1cc(-c2cnc3[nH]cc(-c4cnn(Cc5cccc(C#N)c5)c4)c3c2)cn1` [Example-5]: the negative-log IC50 (pIC50) is greater than 7.30 and the inhibition at 1 µM came to 95%.

For `COC(=O)c1cccc(Cn2cc(-c3c[nH]c4ncc(-c5cnn(C)c5)cc34)cn2)c1` [Example-6], the inhibition at 1 µM amounted to 42%.

Consider `Cn1cc(-c2cnc3[nH]cc(-c4cnn(Cc5ccc(C(C)(C)C)cc5)c4)c3c2)cn1` [Example-9, 3-(1-(4-(tert-butyl)benzyl)-1H-pyrazol-4-yl)-5-(1-methyl-1H-pyrazol-4-yl)-1H-pyrrolo[2,3-b]pyridine], for which the inhibition at 1 µM stood at 21%.

Consider `Cn1cc(-c2cnc3[nH]cc(-c4cnn(CCc5ccccc5)c4)c3c2)cn1` [Example-20A], for which the negative-log IC50 (pIC50) was 6.70 to 7.30, the inhibition at 0.1 µM came to 53% and the inhibition at 1 µM was 92%.

Turning to `c1ccc(CCn2cc(-c3c[nH]c4ncc(-c5cnn(C6CCNCC6)c5)cc34)cn2)cc1` [Example-31, 3-(1-phenethyl-1H-pyrazol-4-yl)-5-(1-(piperidin-4-yl)-1H-pyrazol-4-yl)-1H-pyrrolo[2,3-b]pyridine], the pIC50 is 6.70 to 7.30, the inhibition at 0.1 µM stood at 59% and the inhibition at 1 µM came out at 95%.

With `Cn1cc(-c2cnc3[nH]cc(-c4cnn(Cc5ccccc5F)c4)c3c2)cn1` [Example-1, 3-(1-(2-fluorobenzyl)-1H-pyrazol-4-yl)-5-(1-methyl-1H-pyrazol-4-yl)-1H-pyrrolo[2,3-b]pyridine], the negative logarithm of the IC50 (pIC50) was 6.70 to 7.30 and the inhibition at 1 µM was 95%.

For `Cn1cc(-c2cnc3[nH]cc(-c4cnn(Cc5cccc(F)c5)c4)c3c2)cn1` [Example-3], the pIC50 was greater than 7.30 and the inhibition at 1 µM turned out to be 100%.

With `Cn1cc(-c2cnc3[nH]cc(-c4cnn(Cc5cc(F)cc(F)c5)c4)c3c2)cn1` [Example-14], the pIC50 is greater than 7.30 and the inhibition at 1 µM is 100%.

In the case of `Cn1cc(-c2cnc3[nH]cc(-c4cnn(Cc5ccc(F)cc5)c4)c3c2)cn1` [Example-4], the pIC50 was 6.70 to 7.30 and the inhibition at 1 µM was 93%.

`Cn1cc(-c2cnc3[nH]cc(-c4cnn(Cc5cccc(N)c5)c4)c3c2)cn1` [Example-21, 3-((4-(5-(1-methyl-1H-pyrazol-4-yl)-1H-pyrrolo[2,3-b]pyridin-3-yl)-1H-pyrazol-1-yl)methyl)aniline]: the inhibition at 1 µM was 90%.

In the case of `Cn1cc(-c2cnc3[nH]cc(-c4cnn(Cc5cccc([N+](=O)[O-])c5)c4)c3c2)cn1` [Example-16, 5-(1-methyl-1H-pyrazol-4-yl)-3-(1-(3-nitrobenzyl)-1H-pyrazol-4-yl)-1H-pyrrolo[2,3-b]pyridine], the pIC50 is 6.70 to 7.30, the inhibition at 0.1 µM amounted to 49% and the inhibition at 1 µM came out at 92%.

With `OCCn1cc(-c2cnc3[nH]cc(-c4cnn(Cc5cccc(F)c5)c4)c3c2)cn1` [Example-28, 2-(4-(3-(1-(3-fluorobenzyl)-1H-pyrazol-4-yl)-1H-pyrrolo[2,3-b]pyridin-5-yl)-1H-pyrazol-1-yl)ethanol], the pIC50 was greater than 7.30, the inhibition at 0.1 µM came out at 96% and the inhibition at 1 µM was 98%.

On to `Cc1nn(Cc2cccc(F)c2)c(C)c1-c1c[nH]c2ncc(-c3cnn(C4CCNCC4)c3)cc12` [Example-24], for which the pIC50 was greater than 7.30, the inhibition at 0.1 µM was 76% and the inhibition at 1 µM came to 94%.
